What was measured:
[1] = biological target: T1, recombinant human ALK5 (TGF-βR1) protein (Homo sapiens, UniProt P36897); experiment: Biochemical ALK5 (TGF-βR1) assay to measure pKi (LANCE Ultra ULight kinase assay); details: apparent pKi, converted from pIC50 by Cheng-Prusoff
T1 construct: purchased Life Technologies PR9075A
T1 sequence (P36897 34-503): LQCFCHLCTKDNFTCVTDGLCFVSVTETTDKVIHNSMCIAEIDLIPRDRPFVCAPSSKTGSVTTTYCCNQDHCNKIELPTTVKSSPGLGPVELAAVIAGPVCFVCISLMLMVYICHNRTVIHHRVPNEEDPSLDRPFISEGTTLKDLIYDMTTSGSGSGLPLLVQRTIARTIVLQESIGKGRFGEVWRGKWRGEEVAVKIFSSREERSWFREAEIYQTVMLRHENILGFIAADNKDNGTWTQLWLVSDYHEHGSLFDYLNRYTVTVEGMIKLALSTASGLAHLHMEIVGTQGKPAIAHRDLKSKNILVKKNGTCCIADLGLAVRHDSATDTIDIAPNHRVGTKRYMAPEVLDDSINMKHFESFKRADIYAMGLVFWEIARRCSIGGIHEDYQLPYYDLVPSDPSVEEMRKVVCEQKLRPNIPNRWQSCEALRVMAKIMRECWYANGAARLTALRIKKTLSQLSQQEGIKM
Procedure, shortened: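 Europium TR-FRET kinase assay: the enzyme is exposed to compound for 60 min at room temperature, and reaction with ATP runs 60 min at 37 °C. Percent inhibition relative to DMSO and SD-208 controls gives pIC50, which is converted to pKi.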

[2] = tested on: TGF-β-stimulated SMAD3 phosphorylation in BEAS-2B cells; experiment: Cellular ALK5 potency assay, inhibition of TGF-β stimulated pSMAD3 formation in BEAS-2B cells; format: cell-based; details: Homo sapiens, pSMAD3, TGF-β 10 ng/mL, read-out: BEAS2B pIC50 (converted)
Procedure, shortened: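 Read-out is AlphaLISA detection of phospho-SMAD3 in lysates of BEAS-2B human lung epithelial cells. Cells are exposed to compound for 1 hour, then to 10 ng/mL TGF-β (final) for 30 minutes. Values are pIC50 from concentration–response curves.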

Compound | Ki [1] [nM] | IC50 [2] [nM]
Cc1cccc(-c2nccc(Nc3ccnc(Nc4cncc(C(=O)O[C@@H]5CCNC5)c4)n3)n2)n1 [Compound 549, (R)-pyrrolidin-3-yl 5-((4-((2-(6-methylpyridin-2-yl)pyrimidin-4-yl)amino)pyrimidin-2-yl)amino)nicotinate] | 0.398 to 3.16 | 25.1 to 158
Cc1cccc(-c2nccc(Nc3ccnc(Nc4cncc(C(=O)O[C@H]5CCNC5)c4)n3)n2)n1 [Compound 550, [(3S)-pyrrolidin-3-yl] 5-[[4-[[2-(6-methyl-2-pyridyl)pyrimidin-4-yl]amino]pyrimidin-2-yl]amino]pyridine-3-carboxylate] | 0.398 to 3.16 | 25.1 to 158
Cc1cccc(-c2nccc(Nc3ccnc(Nc4nc(C(=O)OCCN5CCNCC5)cs4)n3)n2)n1 [Compound 551, 2-piperazin-1-ylethyl 2-[[4-[[2-(6-methyl-2-pyridyl)pyrimidin-4-yl]amino]pyrimidin-2-yl]amino]thiazole-4-carboxylate] | 0.398 to 3.16 | 200 to 1260
Cc1cccc(-c2nccc(Nc3ccnc(Nc4ccc(C(=O)OCCN5CCNCC5)nc4)n3)n2)n1 [Compound 552, 2-piperazin-1-ylethyl 5-[[4-[[2-(6-methyl-2-pyridyl)pyrimidin-4-yl]amino]pyrimidin-2-yl]amino]pyridine-2-carboxylate] | 0.0398 to 0.316 | 25.1 to 158
Cc1cccc(-c2nccc(Nc3ccnc(Nc4cccc(C(=O)OCCN5CCNCC5)c4)n3)n2)n1 [Compound 553, 2-piperazin-1-ylethyl 3-[[4-[[2-(6-methyl-2-pyridyl)pyrimidin-4-yl]amino]pyrimidin-2-yl]amino]benzoate] | 0.398 to 3.16 | 25.1 to 158
Cc1cccc(-c2nccc(Nc3ccnc(Nc4csc(C(=O)OCCN5CCNCC5)c4)n3)n2)n1 [Compound 554, 2-piperazin-1-ylethyl 4-[[4-[[2-(6-methyl-2-pyridyl)pyrimidin-4-yl]amino]pyrimidin-2-yl]amino]thiophene-2-carboxylate] | 0.0398 to 0.316 | 25.1 to 158
Fc1cc(F)c(-c2nccc(Nc3ccnc(Nc4ccc(N5CCNCC5)cc4)n3)n2)cc1Cl [Compound 556, N4-(2-(5-chloro-2,4-difluorophenyl)pyrimidin-4-yl)-N2-(4-(piperazin-1-yl)phenyl)pyrimidine-2,4-diamine] | 0.0398 to 0.316 | 25.1 to 158
Cc1cccc(-c2nccc(Nc3ccnc(Nc4ccc(C(=O)OCC56CNCC5C6)nc4)n3)n2)n1 (centres unmarked) [Compound 557, 3-azabicyclo[3.1.0]hexan-1-ylmethyl 5-[[4-[[2-(6-methyl-2-pyridyl)pyrimidin-4-yl]amino]pyrimidin-2-yl]amino]pyridine-2-carboxylate] | 0.0398 to 0.316 | 200 to 1260
Cc1cccc(-c2nccc(Nc3ccnc(Nc4ccc(C(=O)OCCC5CCNCC5)nc4)n3)n2)n1 [Compound 558, 2-(4-piperidyl)ethyl 5-[[4-[[2-(6-methyl-2-pyridyl)pyrimidin-4-yl]amino]pyrimidin-2-yl]amino]pyridine-2-carboxylate] | 0.0398 to 0.316 | 25.1 to 158
Cc1cccc(-c2nccc(Nc3ccnc(Nc4csc(C(=O)OCCNC5CNC5)c4)n3)n2)n1 [Compound 560, 2-(azetidin-3-ylamino)ethyl 4-[[4-[[2-(6-methyl-2-pyridyl)pyrimidin-4-yl]amino]pyrimidin-2-yl]amino]thiophene-2-carboxylate] | 0.0398 to 0.316 | 25.1 to 158
Cc1cccc(-c2nccc(Nc3ccnc(Nc4ccc(C(=O)OC5CCNCC5)nc4)n3)n2)n1 [Compound 561, 4-piperidyl 5-[[4-[[2-(6-methyl-2-pyridyl)pyrimidin-4-yl]amino]pyrimidin-2-yl]amino]pyridine-2-carboxylate] | 0.0398 to 0.316 | 25.1 to 158
Cc1cccc(-c2nccc(Nc3ccnc(Nc4ccc(C(=O)O[C@H](C)C5CCNCC5)nc4)n3)n2)n1 [Compound 562, [(1R)-1-(4-piperidyl)ethyl] 5-[[4-[[2-(6-methyl-2-pyridyl)pyrimidin-4-yl]amino]pyrimidin-2-yl]amino]pyridine-2-carboxylate] | 0.0398 to 0.316 | 200 to 1260
Cc1cccc(-c2nccc(Nc3ccnc(Nc4csc(C(=O)OC[C@H]5CC[C@@H](N)CC5)c4)n3)n2)n1 [Compound 563, (4-aminocyclohexyl)methyl 4-[[4-[[2-(6-methyl-2-pyridyl)pyrimidin-4-yl]amino]pyrimidin-2-yl]amino]thiophene-2-carboxylate] | 0.0398 to 0.316 | 200 to 1260
Cc1cccc(-c2nccc(Nc3ccnc(Nc4ccc(C(=O)OCC5CNC5)cn4)n3)n2)n1 [Compound 564, azetidin-3-ylmethyl 6-[[4-[[2-(6-methyl-2-pyridyl)pyrimidin-4-yl]amino]pyrimidin-2-yl]amino]pyridine-3-carboxylate] | 3.98 to 31.6 | 200 to 1260
Cc1cccc(-c2nccc(Nc3ccnc(Nc4cncc(CN5CC(C(=O)OC6CCNCC6)C5)c4)n3)n2)n1 [Compound 565, 4-piperidyl 1-[[5-[[4-[[2-(6-methyl-2-pyridyl)pyrimidin-4-yl]amino]pyrimidin-2-yl]amino]-3-pyridyl]methyl]azetidine-3-carboxylate] | 0.0398 to 0.316 | 25.1 to 158
Cc1cccc(-c2nccc(Nc3ccnc(Nc4csc(C(=O)O[C@H]5CC[C@@](C)(N)CC5)c4)n3)n2)n1 [Compound 566, (4-amino-4-methyl-cyclohexyl) 4-[[4-[[2-(6-methyl-2-pyridyl)pyrimidin-4-yl]amino]pyrimidin-2-yl]amino]thiophene-2-carboxylate] | 0.0398 to 0.316 | 25.1 to 158
Cc1cccc(-c2nccc(Nc3ccnc(Nc4ccc(C(=O)O[C@@H]5CC[C@@H](C)NC5)nc4)n3)n2)n1 [Compound 567, [(3R,6R)-6-methyl-3-piperidyl] 5-[[4-[[2-(6-methyl-2-pyridyl)pyrimidin-4-yl]amino]pyrimidin-2-yl]amino]pyridine-2-carboxylate] | 0.0398 to 0.316 | 25.1 to 158
Cc1cccc(-c2nccc(Nc3ccnc(Nc4csc(C(=O)OCCN5CC[C@@H](N)C5)c4)n3)n2)n1 [Compound 568, 2-[(3R)-3-aminopyrrolidin-1-yl]ethyl 4-[[4-[[2-(6-methyl-2-pyridyl)pyrimidin-4-yl]amino]pyrimidin-2-yl]amino]thiophene-2-carboxylate] | 0.0398 to 0.316 | 25.1 to 158
Cc1cccc(-c2nccc(Nc3ccnc(Nc4ccc(CN5CC(C(=O)O)C5)nc4)n3)n2)n1 [Compound 569, 1-[[5-[[4-[[2-(6-methyl-2-pyridyl)pyrimidin-4-yl]amino]pyrimidin-2-yl]amino]-2-pyridyl]methyl]azetidine-3-carboxylic acid] | 0.0398 to 0.316 | 200 to 1260
Cc1cccc(-c2nccc(Nc3ccnc(Nc4cncc(C(=O)OC[C@@H]5CCNC5)c4)n3)n2)n1 [Compound 570, [(3R)-pyrrolidin-3-yl]methyl 5-[[4-[[2-(6-methyl-2-pyridyl)pyrimidin-4-yl]amino]pyrimidin-2-yl]amino]pyridine-3-carboxylate] | 0.398 to 3.16 | 25.1 to 158
Cc1cccc(-c2nccc(Nc3ccnc(Nc4nc(C5=CCNCC5)cs4)n3)n2)n1 [Compound 571, N4-[2-(6-methyl-2-pyridyl)pyrimidin-4-yl]-N2-[4-(1,2,3,6-tetrahydropyridin-4-yl)thiazol-2-yl]pyrimidine-2,4-diamine] | 0.0398 to 0.316 | ≤ 20
Cc1cccc(-c2nccc(Nc3ccnc(Nc4csc(C(=O)O[C@H]5CC[C@](C)(N)CC5)c4)n3)n2)n1 [Compound 572, (4-amino-4-methyl-cyclohexyl) 4-[[4-[[2-(6-methyl-2-pyridyl)pyrimidin-4-yl]amino]pyrimidin-2-yl]amino]thiophene-2-carboxylate] | 0.0398 to 0.316 | 25.1 to 158
Cc1cccc(-c2nccc(Nc3ccnc(Nc4cncc(CN5CC(C(=O)O[C@H]6CCNC6)C5)c4)n3)n2)n1 [Compound 573, [(3S)-pyrrolidin-3-yl] 1-[[5-[[4-[[2-(6-methyl-2-pyridyl)pyrimidin-4-yl]amino]pyrimidin-2-yl]amino]-3-pyridyl]methyl]azetidine-3-carboxylate] | 0.0398 to 0.316 | 25.1 to 158
Cc1cccc(-c2nccc(Nc3ccnc(Nc4ccc(C(=O)O[C@@H]5CCNC5)cn4)n3)n2)n1 [Compound 574, [(3R)-pyrrolidin-3-yl] 6-[[4-[[2-(6-methyl-2-pyridyl)pyrimidin-4-yl]amino]pyrimidin-2-yl]amino]pyridine-3-carboxylate] | 3.98 to 31.6 | 200 to 1260
Cc1cccc(-c2nccc(Nc3ccnc(Nc4ccc(C(=O)O[C@H]5CCNC5)cn4)n3)n2)n1 [Compound 575, [(3S)-pyrrolidin-3-yl] 6-[[4-[[2-(6-methyl-2-pyridyl)pyrimidin-4-yl]amino]pyrimidin-2-yl]amino]pyridine-3-carboxylate] | 3.98 to 31.6 | 200 to 1260

Source: patent US20230399312A1, “SUBSTITUTED PYRIMIDINES AND METHODS OF USE” (THERAVANCE BIOPHARMA R&D IP, LLC, priority 2020, published 2023)
